Experimental data: the supplement of paper PMC11451515

Assays:
Assay in all cases: AUC of viability dose-response curve (% viability x log10 dose units); higher = less sensitive
Details in all cases: 48 h
[1] = test system: NOMO1
Summary of the method: (§1)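 Leukemia cells adapted to each medium (500 or 1000 cells/well, 1536-well plates) were exposed to library compounds in DMSO for 48 h at 37°C at 11 threefold doses, 47 μM to 0.79 nM. Luminescence by CellTiter-Glo One was normalised per plate to DMSO and cell-free wells, then fitted with a four-parameter log-logistic curve on log10 dose. Curves above full viability were scaled and quality-control failures removed before area under the curve was integrated by trapezoidal rule.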

[2] = test system: SEM cells
Summary of the method: as §1

[3] = test system: P12-Ichikawa
Summary of the method: as §1

[4] = RPMI 5 mM glucose + 10% dialyzed FBS

| SMILES | AUC of viability dose-response curve ([1]; HPLM + 10% dialyzed FBS) | AUC of viability dose-response curve ([1]; RPMI 5 mM glucose + 10% FBS) | AUC of viability dose-response curve [1, 4] | AUC of viability dose-response curve ([2]; HPLM + 10% dialyzed FBS) | AUC of viability dose-response curve ([2]; RPMI 5 mM glucose + 10% FBS) | AUC of viability dose-response curve [2, 4] | AUC of viability dose-response curve ([3]; HPLM + 10% dialyzed FBS) | AUC of viability dose-response curve ([3]; RPMI 5 mM glucose + 10% FBS) | AUC of viability dose-response curve [3, 4] |
| --- | --- | --- | --- | --- | --- | --- | --- | --- | --- |
| COc1ccc(C(=O)c2c(C)n(CCN3CCOCC3)c3ccccc23)cc1 | 466 | 439 | 430 | 459 | 400 | 449 | 456 | 463 | 434 |
| C[C@@H](NCCCc1cccc(C(F)(F)F)c1)c1cccc2ccccc12 | 455 | 418 | 447 | 467 | 458 | 445 | 455 | 455 | 439 |
| CC(C)(S)[C@@H](N)C(=O)O | 469 | 472 | 465 | 439 | 431 | 455 | 471 | 468 | 476 |
| NC(=O)[C@H]1CCS[C@@H]2C[C@]3(CCCN3C(=O)Cc3ccc(NC(=O)COc4ccc(Cl)cc4Cl)cc3)C(=O)N12 | 356 | 378 | 409 | 376 | 325 | 362 | 316 | 343 | 362 |
| COc1cc(Nc2c(C#N)cnc3cc(OCCCN4CCN(C)CC4)c(OC)cc23)c(Cl)cc1Cl | 370 | 397 | 407 |  |  |  | 372 | 382 | 382 |
| C[C@]12Cc3cn[nH]c3C[C@@H]1CC[C@@H]1[C@@H]2CC[C@@]2(C)[C@H]1CC[C@]2(C)O | 458 | 467 | 442 | 414 | 473 | 473 | 459 | 466 | 463 |
| COc1cc([C@@H](CC(=O)O)c2ccc(C)c(CN3C[C@@H](C)Oc4ccccc4[S+]3(=O)[O-])c2)cc2nnn(C)c12 | 403 | 418 | 431 | 452 | 350 | 367 | 407 | 446 | 452 |
| NC(=O)Nc1sc(-c2ccc(F)cc2)cc1C(N)=O | 415 | 436 | 415 | 425 | 304 | 402 | 419 | 421 | 414 |
| O=C(CS(=O)Cc1ccco1)NC/C=C\COc1cc(CN2CCCCC2)ccn1 (centres undefined) | 464 | 440 | 474 | 455 | 452 | 446 | 459 | 463 | 450 |
| ClC1=CC=C2N/C3=N/C(=O)CN3CC2=C1Cl | 456 | 445 | 410 | 468 | 446 | 456 | 464 | 456 | 452 |
| C[C@@H]1O[C@@H](O[C@H]2C[C@@H](O)[C@]3(CO)[C@H]4[C@H](O)C[C@]5(C)[C@@H](C6=CC(=O)OC6)CC[C@]5(O)[C@@H]4CC[C@]3(O)C2)[C@H](O)[C@H](O)[C@H]1O | 197 | 248 | 227 | 179 | 234 | 216 | 203 | 235 | 211 |
| O=C(O)CCCCC(CCSCc1ccccc1)SCc1ccccc1 (centres undefined) | 446 | 457 | 451 | 463 | 458 | 467 | 433 | 462 | 457 |
| O=C(CCc1ccc(O)cc1)c1c(O)cc(O)cc1O | 457 | 460 | 455 | 433 | 438 | 434 | 459 | 467 | 459 |
| c1ccc2c(Cc3c[nH]c4ccccc34)c[nH]c2c1 | 440 | 434 | 444 | 385 | 396 | 376 | 434 | 420 | 417 |
| OC[C@H]1O[C@H](C[C@@H]1O)N2\C=C(F)/C(=O)NC2=O | 250 | 347 | 214 | 243 | 352 | 198 | 244 | 298 | 259 |
| CC[S+](=O)([O-])Nc1ccc2c(c1)/C(=C(/Nc1ccc(CN3CCCCC3)cc1)c1ccccc1)C(=O)N2 | 335 | 314 | 323 | 223 | 232 | 230 | 276 | 274 | 297 |
| CCC[S+](=O)([O-])Nc1ccc(F)c(C(=O)c2c[nH]c3ncc(Cl)cc23)c1F | 403 | 437 | 440 | 409 | 419 | 425 | 439 | 450 | 431 |
| CCn1c(-c2nonc2N)nc2c(C#CC(C)(C)O)ncc(OC[C@H]3CCCNC3)c21 | 360 | 388 | 390 | 341 | 397 | 345 | 358 | 282 | 313 |
| CCN(CCO)CCCOc1ccc2c(Nc3cc(CC(=O)Nc4cccc(F)c4)[nH]n3)ncnc2c1 | 372 | 329 | 355 | 302 | 280 | 282 | 256 | 259 | 287 |
| CCc1cc(C(N)=S)ccn1 | 459 | 434 | 460 | 407 | 434 | 447 | 448 | 463 | 452 |
| CC(C)(F)C[C@H](N[C@@H](c1ccc(-c2ccc([S+](C)(=O)[O-])cc2)cc1)C(F)(F)F)C(=O)NC1(C#N)CC1 | 467 | 427 | 446 | 454 | 452 | 475 | 471 | 471 | 474 |
| OC1=CC2=C(C=C1)C(=O)\C(=C(O2)\C3=CC(=C(O)C=C3)O)O |  |  |  | 456 | 456 | 418 | 430 | 420 | 406 |
| CCCC(C)(COC(N)=O)COC(=O)NC(C)C (centres undefined) | 466 | 451 | 446 | 451 | 443 | 412 | 459 | 455 | 458 |

| SMILES | AUC of viability dose-response curve ([1]; HPLM + 10% dialyzed FBS) | AUC of viability dose-response curve ([1]; RPMI 5 mM glucose + 10% FBS) | AUC of viability dose-response curve [1, 4] | AUC of viability dose-response curve ([2]; HPLM + 10% dialyzed FBS) | AUC of viability dose-response curve ([2]; RPMI 5 mM glucose + 10% FBS) | AUC of viability dose-response curve [2, 4] | AUC of viability dose-response curve ([3]; HPLM + 10% dialyzed FBS) | AUC of viability dose-response curve ([3]; RPMI 5 mM glucose + 10% FBS) | AUC of viability dose-response curve [3, 4] |
| --- | --- | --- | --- | --- | --- | --- | --- | --- | --- |
| O=C([O-])C[C@H](O)C[C@H](O)/C=C/c1c(C2CC2)nc2ccccc2c1-c1ccc(F)cc1 | 443 | 450 | 440 | 395 | 418 | 413 | 407 | 375 | 390 |
| Cc1c(-c2cccc3c(CCCOc4cccc5ccccc45)c(C(=O)O)n(Cc4cccnc4)c23)c(COc2ccc(N3CCN([S+](=O)([O-])N(C)C)CC3)cc2)nn1C | 407 | 416 | 423 | 415 | 456 | 423 | 427 | 421 | 418 |
| CN1CCN(c2c(F)cc3c(=O)c(C(=O)O)cn(CCF)c3c2F)CC1 | 466 | 447 | 461 | 439 | 458 | 466 | 459 | 457 | 445 |
| Cc1ccccc1C(OCCN(C)C)c1ccccc1 (centres undefined) | 462 | 468 | 457 | 453 | 463 | 465 | 446 | 476 | 469 |
| CC(NC(C)(C)C)C(=O)c1cccc(Cl)c1 (centres undefined) | 448 | 476 | 456 | 444 | 433 | 436 | 470 | 473 | 472 |
| NC[C@@H]1O[C@H](O[C@H]2[C@@H](O)[C@H](O[C@@H]3[C@@H](O)[C@H](N)C[C@H](N)[C@H]3O[C@H]3O[C@H](CN)[C@@H](O)[C@H](O)[C@H]3N)O[C@@H]2CO)[C@H](N)[C@@H](O)[C@@H]1O.O=S(=O)(O)O.O=S(=O)(O)O.O=S(=O)(O)O | 468 | 465 | 428 | 476 | 463 | 458 | 473 | 467 | 461 |
| Cc1cc(OCCC[S+](C)(=O)[O-])cc(C)c1-c1cccc(COc2ccc3c(c2)OC[C@H]3CC(=O)O)c1 | 466 | 458 | 434 | 454 | 448 | 445 | 460 | 428 | 430 |
| CO[C@@]12[C@H](COC(N)=O)C/3=C(N1C[C@@H]4N[C@H]24)/C(=O)/C(=C(N)\C3=O)C | 449 | 453 | 446 | 453 | 431 | 435 | 472 | 443 | 419 |
| Cc1cc(O)c2c(c1)C(=O)c1cccc(O)c1C2=O | 460 | 475 | 460 | 445 | 439 | 449 | 465 | 472 | 466 |
| C=C1C(=O)[C@@]23C(CC[C@@H]1[C@H]2O)[C@@]12CO[C@]3(O)[C@@H](O)[C@@H]1C(C)(C)CC[C@@H]2O (some centres undefined) | 435 | 444 | 451 |  |  |  | 409 | 394 | 389 |
| N[S+](=O)([O-])c1cc2c(cc1Cl)NC(C(Cl)Cl)N[S+]2(=O)[O-] (centres undefined) | 450 | 453 | 442 | 431 | 450 | 447 | 456 | 459 | 467 |
| O=S(=O)([O-])CCS.[Na+] | 367 | 341 | 351 | 452 | 443 | 405 | 379 | 383 | 407 |
| CCN1\C=C(\C(O)=O)C(=O)C2=C1N=C(N3CCNCC3)C(=C2)F | 343 | 380 | 361 | 385 | 407 | 409 | 430 | 386 | 396 |
| O=[N+]([O-])c1ncc[nH]1 | 416 | 402 | 400 | 402 | 444 | 459 | 418 | 395 | 414 |
| CN(C)C1=CC(=CC=C1)C\2=C\3C(=O)N(NC3=C/C(=O)N2C)C4=CC=CC=C4Cl | 292 | 314 | 314 | 322 | 317 | 311 | 312 | 327 | 342 |
| CC[C@@H]1[C@@H](C)O[C@@](O)([C@@H](C)[C@H](O)[C@H](C)[C@H]2OC(=O)/C=C/C=C/[C@H](C)[C@@H]([C@@H](C)[C@@H](O)[C@H](C)[C@@]3(O)C[C@@H](O[C@H]4C[C@H](O)[C@H](O)[C@H](C)O4)[C@H](CC)[C@@H](C)O3)OC(=O)/C=C/C=C/[C@@H]2C)C[C@H]1O[C@H]1C[C@H](O)[C@H](O)[C@H](C)O1 | 370 | 366 | 372 | 368 | 357 | 351 | 374 | 403 | 380 |
| O=C(Nc1nnc(-c2ccco2)o1)c1cc(-c2ccccc2)nc2ccccc12 | 393 | 455 | 451 | 442 | 348 | 443 | 379 | 448 | 451 |
| CC(C)=CCC/C(C)=C/CC/C(C)=C/CSc1ccccc1C(=O)O | 393 | 432 | 395 | 348 | 355 | 374 | 402 | 366 | 390 |
| CN(C)c1ccc2nc3ccc(N(C)C)cc3[s+]c2c1 | 401 | 374 | 376 |  |  |  | 387 | 386 | 395 |
| O=C1CCC[C@@H]2[C@H]3CCCN4CCC[C@@H](CN12)[C@@H]34 |  |  |  | 324 | 390 | 347 | 426 | 396 | 389 |
| COc1ccc(C(CN(C)C)C2(O)CCCCC2)cc1 (centres undefined) |  |  |  | 476 | 475 | 424 | 459 | 405 | 461 |
| Cc1nn(C)c(COc2ccc(N3CCN([S+](=O)([O-])N(C)C)CC3)cc2)c1-c1cccc2c(CCCOc3cccc4ccccc34)c(C(=O)O)n(CCN3CCOCC3)c12 |  |  |  | 465 | 377 | 458 | 392 | 463 | 456 |
